Assay results reported in PubChem BioAssay (NCI).
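Interpolation was linear, between the two tested concentrations surrounding the appropriate level; five concentrations were tested over 48 hours in 96-well plates. TGI marks complete inhibition of growth.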

What was measured:
Test in all cases: growth of human tumour cells (NCI), 48 h
786-0 renal = test system: 786-0 renal
ACHN renal = test system: ACHN renal
DMS 273 small cell lung = test system: DMS 273 small cell lung
EKVX NSCLC = test system: EKVX NSCLC
HCC-2998 colon = test system: HCC-2998 colon
HCT-116 colon = test system: HCT-116 colon
HL-60(TB) leukemia = test system: HL-60(TB) leukemia
KM12 colon = test system: KM12 colon
NCI-H226 lung = test system: NCI-H226 lung
OVCAR-4 ovarian = test system: OVCAR-4 ovarian
RPMI-8226 leukemia = test system: RPMI-8226 leukemia
SF-295 CNS = test system: SF-295 CNS
SK-MEL-5 melanoma = test system: SK-MEL-5 melanoma
SN12C renal = test system: SN12C renal
SNB-78 CNS = test system: SNB-78 CNS
TK-10 renal = test system: TK-10 renal
MDA-MB-435 = test system: MDA-MB-435
MDA-N = test system: MDA-N
PC-3 prostate = test system: PC-3 prostate
T-47D breast = test system: T-47D breast

| Structure (SMILES) | TGI (786-0 renal) | TGI (ACHN renal) | TGI (DMS 273 small cell lung) | TGI (EKVX NSCLC) | TGI (HCC-2998 colon) | TGI (HCT-116 colon) | TGI (HL-60(TB) leukemia) | TGI (KM12 colon) | TGI (NCI-H226 lung) | TGI (OVCAR-4 ovarian) | TGI (RPMI-8226 leukemia) | TGI (SF-295 CNS) | TGI (SK-MEL-5 melanoma) | TGI (SN12C renal) | TGI (SNB-78 CNS) | TGI (TK-10 renal) | TGI (MDA-MB-435) | TGI (MDA-N) | TGI (PC-3 prostate) | TGI (T-47D breast) |
| --- | --- | --- | --- | --- | --- | --- | --- | --- | --- | --- | --- | --- | --- | --- | --- | --- | --- | --- | --- | --- |
| O=C(c1nc2ccccc2[nH]c1=O)C(O)c1ccco1 (stereo unspecified) | > 100 µM | > 100 µM | > 100 µM | > 100 µM | > 100 µM | > 100 µM | > 100 µM | > 100 µM | > 100 µM | > 100 µM | > 100 µM | > 100 µM | > 100 µM | > 100 µM | > 100 µM | > 100 µM |  |  |  |  |
| Cc1nc(N2N=C(c3ccc(Cl)cc3)CCC2=O)sc1[N+](=O)[O-] | > 100 µM | > 100 µM | > 100 µM | > 100 µM | > 100 µM | > 100 µM | > 100 µM | > 100 µM | > 100 µM | > 100 µM | > 100 µM | > 100 µM | > 100 µM | > 100 µM | > 100 µM | > 100 µM |  |  |  |  |
| CC(=O)C1Cn2c(=O)c3cc4ccccc4cc3c(=O)n2C=C1C (stereo unspecified) | > 100 µM | > 100 µM | > 100 µM | > 100 µM | > 100 µM | > 100 µM | > 100 µM | > 100 µM | > 100 µM | > 100 µM | > 100 µM | > 100 µM | > 100 µM | > 100 µM | > 100 µM | > 100 µM |  |  |  |  |
| O=C(O)COc1ccc(C(=O)/C(SS/C(C(=O)c2ccc(OCC(=O)O)c(Cl)c2Cl)=C2\C=C(c3ccc(Cl)cc3)SS2)=C2/C=C(c3ccc(Cl)cc3)SS2)c(Cl)c1Cl | 26.3 µM | 25.4 µM | 32.7 µM | > 100 µM | 25.3 µM | 22.8 µM | 2.1 µM | 54.6 µM | 18.7 µM | 16.7 µM | 43.3 µM | 82.5 µM | 48.1 µM | 1.79 µM | 25.5 µM | > 100 µM |  |  |  |  |
| COc1cc(O)c2c(c1)O[C@@H]1OCC[C@H]21 | > 100 µM | > 100 µM | > 100 µM | > 100 µM | > 100 µM | > 100 µM | > 100 µM | > 100 µM | > 100 µM | > 100 µM | > 100 µM | > 100 µM | > 100 µM | > 100 µM | > 100 µM | > 100 µM |  |  |  |  |
| O=C(O)C(C(=O)O)P(=S)(S)c1ccccc1 (stereo unspecified) | > 100 µM | > 100 µM | > 100 µM | > 100 µM | > 100 µM | > 100 µM | > 100 µM | > 100 µM | > 100 µM | > 100 µM | > 100 µM | > 100 µM | > 31.6 µM | > 100 µM | > 100 µM | > 100 µM | > 100 µM | > 100 µM | > 100 µM | > 100 µM |
| O=C(Nc1cccc(C(F)(F)F)c1)C(=O)C1NC(=S)NC1=O (stereo unspecified) | > 100 µM | > 100 µM | > 100 µM | > 100 µM | > 100 µM | > 100 µM | > 100 µM | > 100 µM | > 100 µM | > 100 µM | > 100 µM | > 100 µM | > 100 µM | > 100 µM | > 100 µM | > 100 µM |  |  |  |  |
